Experiments:
Conditions in all cases: 72 h
[1] = system: Vero E6; test: drug sensitivity score (DSS) for viability; higher = more toxic; extreme values may be limits of the assay
[2] = system: HepG2; test: as above
[3] = system: Calu-3; test: as above
[4] = system: Caco-2; test: as above
[5] = system: U2OS; test: as above
[6] = system: Vero E6; test: cell viability relative to DMSO; higher = less toxic
[7] = system: HepG2; test: as above
[8] = system: Calu-3; test: as above
[9] = system: Caco-2; test: as above
[10] = system: U2OS; test: as above
[11] = system: Vero E6; test: relative viability EC50 (midpoint between 100% and the lowest measured viability); higher = less toxic
[12] = system: HepG2; test: as above
[13] = system: Calu-3; test: as above
[14] = system: Caco-2; test: as above
[15] = system: U2OS; test: as above

| SMILES | drug sensitivity score [1] | drug sensitivity score [2] | drug sensitivity score [3] | drug sensitivity score [4] | drug sensitivity score [5] | cell viability ([6]; 1 nM) [%] | cell viability ([6]; 10 nM) [%] | cell viability ([6]; 100 nM) [%] | cell viability ([6]; 1000 nM) [%] | cell viability ([6]; 10000 nM) [%] | cell viability ([7]; 1 nM) [%] | cell viability ([7]; 10 nM) [%] | cell viability ([7]; 100 nM) [%] | cell viability ([7]; 1000 nM) [%] | cell viability ([7]; 10000 nM) [%] | cell viability ([8]; 1 nM) [%] | cell viability ([8]; 10 nM) [%] | cell viability ([8]; 100 nM) [%] | cell viability ([8]; 1000 nM) [%] | cell viability ([8]; 10000 nM) [%] | cell viability ([9]; 1 nM) [%] | cell viability ([9]; 10 nM) [%] | cell viability ([9]; 100 nM) [%] | cell viability ([9]; 1000 nM) [%] | cell viability ([9]; 10000 nM) [%] | cell viability ([10]; 1 nM) [%] | cell viability ([10]; 10 nM) [%] | cell viability ([10]; 100 nM) [%] | cell viability ([10]; 1000 nM) [%] | cell viability ([10]; 10000 nM) [%] | relative viability EC50 [11] [µM] | relative viability EC50 [12] [µM] | relative viability EC50 [13] [µM] | relative viability EC50 [14] [µM] | relative viability EC50 [15] [µM] |
| --- | --- | --- | --- | --- | --- | --- | --- | --- | --- | --- | --- | --- | --- | --- | --- | --- | --- | --- | --- | --- | --- | --- | --- | --- | --- | --- | --- | --- | --- | --- | --- | --- | --- | --- | --- |
| CC(=O)Nc1nnc(S(N)(=O)=O)s1 [acetazolamide] | 0 | 0 | 0 | 0 | 0 | 102 | 101 | 97.9 | 89.9 | 99.9 | 105 | 103 | 105 | 105 | 98 | 103 | 104 | 97.5 | 99.2 | 94.3 | 97.5 | 97.7 | 95.2 | 96.6 | 92.4 | 103 | 101 | 95.7 | 104 | 97.2 | > 10 | > 10 | > 10 | > 10 | > 10 |
| Nc1[nH]cnc2ncnc1-2 [adenine] | 0 | 0 | 0 | 0 | 0 | 104 | 103 | 101 | 91.7 | 98.2 | 77.5 | 98.7 | 92.8 | 92.5 | 93.2 | 91.3 | 93.3 | 112 | 108 | 90.7 | 91.8 | 95.9 | 104 | 88.5 | 114 | 93.8 | 103 | 98.4 | 99.5 | 110 | > 10 | > 10 | > 10 | > 10 | > 10 |
| COc1ccc2cccc(CCNC(C)=O)c2c1 [agomelatine] | 0 | 0 | 0 | 0 | 0 | 98 | 103 | 92.5 | 106 | 96.5 | 97.7 | 104 | 97.8 | 101 | 103 | 105 | 106 | 103 | 88.4 | 106 | 102 | 104 | 104 | 96.8 | 98 | 105 | 99 | 105 | 98.8 | 99.8 | > 10 | > 10 | > 10 | > 10 | > 10 |
| CCCCC[C@H](O)/C=C/[C@H]1[C@H](O)CC(=O)[C@@H]1CCCCCCC(=O)O [alprostadil] | 0 | 0 | 0 | 0 | 0 | 101 | 101 | 98.7 | 101 | 96.1 | 91.4 | 101 | 98.6 | 99.4 | 90.5 | 99 | 105 | 88.2 | 98.7 | 98.1 | 96.8 | 99 | 96.7 | 98.6 | 97.8 | 104 | 102 | 100 | 96.7 | 98.7 | > 10 | > 10 | > 10 | > 10 | > 10 |
| CCNC(=O)N1CCN(CCCC(c2ccc(F)cc2)c2ccc(F)cc2)CC1 [amperozide] | 0 | 0 | 0 | 1 | 0 | 98.7 | 98.6 | 100 | 99.2 | 94.1 | 98.5 | 102 | 91.9 | 103 | 93.7 | 97.6 | 103 | 95.7 | 106 | 94.4 | 96.5 | 96.6 | 85.6 | 94.1 | 81.4 | 97.5 | 103 | 94.4 | 100 | 95.3 | > 10 | > 10 | > 10 | > 10 | > 10 |
| C[C@]12CCC(=O)C[C@@H]1CC[C@@H]1[C@@H]2CC[C@]2(C)C=CC[C@@H]12 [androstenone] | 0 | 0 | 0.1 | 0 | 0 | 96.8 | 97.1 | 97.4 | 93.4 | 102 | 100 | 99.4 | 92.4 | 89.8 | 100 | 90.7 | 91.1 | 99.8 | 105 | 80.2 | 86.6 | 104 | 93.9 | 97.2 | 102 | 94.5 | 99.3 | 92.6 | 99 | 101 | > 10 | > 10 | > 10 | > 10 | > 10 |

Source: the supplement of paper PMC13380429
